In the supplement of paper PMC8960247 one finds relative viability data, which are given here for nine compounds.

Counter-ions that a name gives are not always drawn. ± gives the standard error.

Assay [1] deals with 621-102 (TSC2-deficient). The experiment in a line: relative viability vs DMSO; higher = less cytotoxic. The conditions noted are these: serum: 10% FBS, 72 h.
Assay [2] deals with 621-103 (TSC2-rescued). The description is as above. The note with it: serum: 10% FBS, 72 h.
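Also: immortalized renal angiomyolipoma cells stably carrying empty vector or TSC2, dosed in 384-well plates in DMEM, viability normalized to vehicle-treated wells within each plate.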

Regarding `CCN[C@H]1C[C@H](C)S(=O)(=O)c2sc(S(N)(=O)=O)cc21` [Dorzolamide HCl], the relative viability in assay [1] (0.0001 µM) is 98.73 ± 0.8%; in assay [1] (0.001 µM) it was 104.2 ± 0.95%; in assay [1] (0.01 µM) it was 108 ± 1.7%; in assay [1] (0.1 µM) it was 106.3 ± 0.82%; in assay [1] (1 µM), 96.9 ± 2.5%; in assay [1] (10 µM) it was 103 ± 3.9%. Moreover, the relative viability in assay [2] (0.0001 µM) is 99 ± 2.7%; in assay [2] (0.001 µM), 103 ± 3.2%; in assay [2] (0.01 µM) it was 103 ± 1.3%; in assay [2] (0.1 µM), 103 ± 1.4%; in assay [2] (1 µM), 102 ± 3.7%; in assay [2] (10 µM), 97.53 ± 0.19%.
With `CCOC(=O)C1=C(C)NC(C)=C(C(=O)OC)C1c1cccc(Cl)c1Cl` (stereo not drawn) [Felodipine], the relative viability turned out to be 103 ± 2.2% in assay [1] (0.0001 µM); 97.3 ± 5.4% in assay [1] (0.001 µM); 101 ± 4.7% in assay [1] (0.01 µM); 103 ± 1.5% in assay [1] (0.1 µM); 106 ± 1.6% in assay [1] (1 µM); 117 ± 4.6% in assay [1] (10 µM). In addition, the relative viability stood at 104.4 ± 0.74% in assay [2] (0.0001 µM); 100.1 ± 0.68% in assay [2] (0.001 µM); 104 ± 3.1% in assay [2] (0.01 µM); 98.2 ± 1.4% in assay [2] (0.1 µM); 100 ± 1.6% in assay [2] (1 µM); 106 ± 2.3% in assay [2] (10 µM).
Consider `O=c1ncn2nc(Sc3ccc(F)cc3F)ccc2c1-c1c(Cl)cccc1Cl` [VX-745], for which the relative viability in assay [1] (0.0001 µM) came out at 106 ± 5.1%; in assay [1] (0.001 µM) it was 112 ± 5.5%; in assay [1] (0.01 µM) it was 107 ± 1.1%; in assay [1] (0.1 µM), 104 ± 2.1%; in assay [1] (1 µM) it was 106 ± 4%; in assay [1] (10 µM) it was 93.3 ± 3.9%. The relative viability in assay [2] (0.0001 µM) turned out to be 99.1 ± 1%; in assay [2] (0.001 µM) it was 101 ± 1.2%; in assay [2] (0.01 µM), 99.4 ± 1.5%; in assay [2] (0.1 µM), 100 ± 1.5%; in assay [2] (1 µM), 99.42 ± 0.31%; in assay [2] (10 µM), 98.127 ± 0.049%.
As to `COC(=O)Nc1ccc(-c2nc(N3CCOCC3)c3cnn(C4CCN(C(=O)OC)CC4)c3n2)cc1` [WYE-354], the relative viability came out at 89.9 ± 1.9% in assay [1] (0.0001 µM); 84.2 ± 1.1% in assay [1] (0.001 µM); 79.5 ± 4.5% in assay [1] (0.01 µM); 84.3 ± 5.7% in assay [1] (0.1 µM); 49.3 ± 3.1% in assay [1] (1 µM); 61.2 ± 3.3% in assay [1] (10 µM). In addition, the relative viability in assay [2] (0.0001 µM) is 102 ± 1.1%; in assay [2] (0.001 µM), 103.2 ± 0.11%; in assay [2] (0.01 µM), 102 ± 1.2%; in assay [2] (0.1 µM), 105.7 ± 1%; in assay [2] (1 µM), 68.1 ± 0.21%; in assay [2] (10 µM), 74.5 ± 2.2%.
`CN1CCN(c2ccc([N+](=O)[O-])c3no[n+]([O-])c23)CC1`: the relative viability came to 102 ± 5.5% in assay [1] (0.0001 µM); 101.2 ± 1% in assay [1] (0.001 µM); 105 ± 1.3% in assay [1] (0.01 µM); 102 ± 1.3% in assay [1] (0.1 µM); 103 ± 1.9% in assay [1] (1 µM); 88.03 ± 0.45% in assay [1] (10 µM). In addition, the relative viability was determined as 75 ± 4.3% in assay [2] (0.0001 µM); 82.8 ± 4.1% in assay [2] (0.001 µM); 87.4 ± 5.2% in assay [2] (0.01 µM); 98.8 ± 1.6% in assay [2] (0.1 µM); 96 ± 2.7% in assay [2] (1 µM); 65.3 ± 5% in assay [2] (10 µM).
With `CO[C@H]1/C=C\C=C(/C)C(=O)NC2=CC(=O)C(NCCN(C)C)=C(C[C@@H](C)C[C@H](OC)[C@H](O)[C@@H](C)/C=C(\C)[C@@H]1OC(N)=O)C2=O` [17-DMAG], the relative viability in assay [1] (0.0001 µM) worked out at 76.2 ± 3.6%; in assay [1] (0.001 µM), 58 ± 3.6%; in assay [1] (0.01 µM), 28.6 ± 0.72%; in assay [1] (0.1 µM), 21.7 ± 0.8%; in assay [1] (1 µM), 26.3 ± 0.3%; in assay [1] (10 µM) it was 16.31 ± 0.12%. Besides, the relative viability in assay [2] (0.0001 µM) turned out to be 90.6 ± 3%; in assay [2] (0.001 µM), 41 ± 1.2%; in assay [2] (0.01 µM) it was 5.591 ± 0.017%; in assay [2] (0.1 µM) it was 5.287 ± 0.051%; in assay [2] (1 µM), 6.16 ± 0.36%; in assay [2] (10 µM) it was 3.07 ± 0.31%.
For `COc1ccccc1N1CCN(CCN2C(=O)CC3(CCCC3)CC2=O)CC1` [BMY 7378], the relative viability was found to be 104.1 ± 0.41% in assay [1] (0.0001 µM); 110 ± 3.7% in assay [1] (0.001 µM); 100 ± 3.8% in assay [1] (0.01 µM); 104.4 ± 0.88% in assay [1] (0.1 µM); 105 ± 0.26% in assay [1] (1 µM); 95.3 ± 2.3% in assay [1] (10 µM). The relative viability in assay [2] (0.0001 µM) worked out at 96.7 ± 4.4%; in assay [2] (0.001 µM), 96.58 ± 0.1%; in assay [2] (0.01 µM) it was 99.07 ± 0.31%; in assay [2] (0.1 µM) it was 98.2 ± 1.8%; in assay [2] (1 µM) it was 105 ± 1.9%; in assay [2] (10 µM) it was 105 ± 1.3%.
Take `Cc1nc(=O)c2cc(CN(C)c3ccc(C(=O)N[C@@H](CCC(=O)O)C(=O)O)s3)ccc2[nH]1` [Raltitrexed (Tomudex)]: the relative viability in assay [1] (0.0001 µM) was determined as 86.7 ± 3.5%; in assay [1] (0.001 µM) it was 92.8 ± 1.6%; in assay [1] (0.01 µM) it was 107 ± 1.7%; in assay [1] (0.1 µM), 103.6 ± 0.8%; in assay [1] (1 µM) it was 92.5 ± 1.6%; in assay [1] (10 µM), 80.3 ± 1.2%. In addition, the relative viability in assay [2] (0.0001 µM) was found to be 99.1 ± 5.1%; in assay [2] (0.001 µM), 97.1 ± 4.5%; in assay [2] (0.01 µM) it was 115 ± 4.2%; in assay [2] (0.1 µM), 113 ± 1.8%; in assay [2] (1 µM), 102.7 ± 0.7%; in assay [2] (10 µM), 96.3 ± 3.2%.
In the case of `CC[C@]12C=CCN3CC[C@@]4(c5cc([C@@]6(C(=O)OC)C[C@@H]7C[C@@H](C(C)(F)F)CN(Cc8c6[nH]c6ccccc86)C7)c(OC)cc5N(C)[C@H]4[C@@](O)(C(=O)OC)[C@@H]1OC(C)=O)[C@@H]32` [Vinflunine Tartrate], the relative viability in assay [1] (0.0001 µM) was 91.28 ± 0.35%; in assay [1] (0.001 µM), 96.3 ± 1.4%; in assay [1] (0.01 µM) it was 64.68 ± 0.39%; in assay [1] (0.1 µM) it was 44.8 ± 3.1%; in assay [1] (1 µM), 32 ± 1.2%; in assay [1] (10 µM), 28.9 ± 0.74%. In addition, the relative viability in assay [2] (0.0001 µM) was 99.3 ± 1.7%; in assay [2] (0.001 µM), 93 ± 2.6%; in assay [2] (0.01 µM), 66.9 ± 1.8%; in assay [2] (0.1 µM), 34.9 ± 1.6%; in assay [2] (1 µM), 29.8 ± 0.55%; in assay [2] (10 µM) it was 23.6 ± 0.65%.
